“Also recorded” adds a separate entry of the source. Where two headings read alike, the source gives them in different places.

Series [1] relates to mitochondrial PLD of sweet corn kernel. As to the kind of experiment: Phospholipase D activity by release of radiolabelled choline, mitochondrial fraction. Format: biochemical, Zea mays. As to the method: (§1) Protein Extraction. Sweet corn (Zea mays L. cv Peaches and Cream) was used for this study. The kernels were obtained locally from a grocery store and stored frozen at −20° C. until it was used for protein extraction. Frozen kernels were homogenized in 0.1 m Tris-HCl buffer at pH 7.5 essentially as described by Pinhero et al. (1998), except that sucrose was not included in the homogenizing buffer. The mitochondrial, microsomal and the cytosolic fractions were collected by differential centrifugation (Pinhero et al., 1998). The fraction comprising the starch granules was removed by centrifuging the samples at 2500×g for 10 minutes. The resulting supernatant was subjected to centrifugation at 15,000×g to pellet the mitochondrial membrane fraction (Edwards and Gardestrom, 1987). The supernatant from this step was centrifuged at 105,000×g to pellet the microsomal membranes. The supernatant comprising the cytosol was subjected to ammonium sulphate fractionation at 30 and 60% saturation. The precipitated protein was collected by centrifugation at 15000×g and redissolved in 10 mM Tris-HCl pH 7.0 and dialyzed overnight with the same buffer, also containing 0.1 mM DTT, with two changes of 2 L each. Protein concentration was determined by the method of Bradford (1976) using bovine serum albumin as a standard. All steps of protein extraction procedure were carried out at 4° C.
(§2) Enzyme Assay. PLC activity was determined as described by Pinhero et al. (1998) by measuring the release of radiolabelled choline from L3-phosphatidyl(N-methyl-^3H) choline,1,2-dipalmitoyl at 23° C. The basic assay mixture contained 0.1 M Tris-HCl (pH 7.5), 0.2 mM EGTA, membrane or cytosol protein (2.5 μg), and approximately 100,000 dpm of choline-labelled phosphatidylcholine in 0.1% (v/v) Triton-X 100 (0.01% final), to make a total volume of 1 ml. To study the regulation of PLD by alcohols, aldehydes and metal ions, the appropriate amounts of the reagent solutions were added to the basic reaction mixture. Similarly, citrate and Tris-HCl buffers were used to study the effect of pH on PLD activity. The reaction was terminated after 10 minutes by adding 100 μL of 4 N HCl followed by 1 mL of chloroform/methanol (2:1, v/v) and left overnight. The amount of [^3H]choline released during the reaction was determined by mixing a 0.5 ml aliquot of the aqueous phase directly into 5 ml of scintillation fluid (Ecolume, ICN) and determining the amount of radiolabel using a Beckman LS 6800 Scintillation counter (Beckman Instruments Inc.).

Series [2] has as its system microsomal PLD of sweet corn kernel. As to the kind of experiment: Phospholipase D activity by release of radiolabelled choline, microsomal fraction. Format: biochemical, Zea mays. As to the method:
as §1, §2

Series [3] concerns phospholipase D in sweet corn kernel. Briefly: Phospholipase D activity by release of radiolabelled choline, fractions not distinguished. Format: biochemical, Zea mays. As to conditions: sweet corn kernel preparations, fraction not specified. As to the method:
Protein Extraction. Sweet corn (Zea mays L. cv Peaches and Cream) was used for this study. The kernels were obtained locally from a grocery store and stored frozen at −20° C. until it was used for protein extraction. […] The fraction comprising the starch granules was removed by centrifuging the samples at 2500×g for 10 minutes. […] The supernatant from this step was centrifuged at 105,000×g to pellet the microsomal membranes. The supernatant comprising the cytosol was subjected to ammonium sulphate fractionation at 30 and 60% saturation. The precipitated protein was collected by centrifugation at 15000×g and redissolved in 10 mM Tris-HCl pH 7.0 and dialyzed overnight with the same buffer, also containing 0.1 mM DTT, with two changes of 2 L each. […] All steps of protein extraction procedure were carried out at 4° C.
as §2, with “PLC activity was determined as described by Pinhero et al. (1998) by measuring the release of radiolabelled choline from L3-phosphatidyl(N-methyl-^3H) choline,1,2-dipalmitoyl at 23° C.” left out
Protein Extraction: Sweet corn (Zea mays L. cv Peaches and Cream) was used for this study. The kernels were obtained locally from a grocery store and stored frozen at −20° C. until used. Frozen kernels were homogenized in 0.1 M Tris-HCl buffer at pH 7.5, containing 1 mM dithiothreitol, I mM phenylmethanesulfonylfluoride, 2 mM EDTA and 1 mM EGTA. The homogenate was filtered through four layers of cheese clothe. After removing the debris, the homogenate was subjected to differential centrifugation to separate mitochondria, microsomes and cytosol. The fraction comprising starch granules was removed by centrifuging the samples at 2500×g for 10 min. The resulting supernatant was subjected to centrifugation at 15000×g to pellet the mitochondrial membrane fraction. The supernatant from this step was centrifuged at 105,000×g to pellet the microsomal membranes. The supernatant was subjected to ammonium sulfate fractionation at 30 and 60% saturation to precipitate the cytosolic proteins. The precipitated proteins were pelleted by centrifugation at 15000×g and dissolved in 10 mM Tris HCI, pH 7.5, and dialyzed overnight in the same buffer also containing 0.1 mM DTT. Resuspended microsomal, mitochondrial membrane preparation and the cytosolic proteins were stored at −80° C. until used for phospholipase D assays.
Assay for Phospholipase D: Phospholipase D activity was determined by the liberation of choline from choline methyl labelled dipalmitoylphosphatidylcholine [L3-phosphatidyl (N-methyl-3H) choline 1,2-dipalmitoyl]. The basic assay mixture contained 0.1 M. Tris-HCl, pH 7.5, 0.2 mM EGTA, 1-2.5 ug of membrane or cytosolic protein (precipitated at 60% ammonium sulfate saturation) and 100,000 dpm of choline-labelled phosphatidylcholine in 0.1% Triton X-100 (final 0.01%), in a total volume of 1 ml. Hexanal and hexanol was added to the assay mixture and incubated for 5 min prior to the addition of substrate. The reaction was terminated after 10 min by the addition of 100 uL of 4N HCl, followed by 1 ml of chloroform: methanol (2:1 v/v) and left overnight.

Series [4] deals with cytosolic PLD of sweet corn kernel. As to the kind of experiment: Phospholipase D activity by release of radiolabelled choline, cytosolic fraction. Format: biochemical, Zea mays. As to the method:
as §1, §2

The test system of another series is phospholipase D. As to conditions: reported in plants; cited from earlier work.
The test system of another series is PLD. As to conditions: animal systems; cited from earlier work.
The next series has as its system parsley leaves. Briefly: Parsley leaf senescence, excised leaves incubated in the dark for fourteen days. To be noted: increasing amounts in 2.5 ml water with 0.001% Tween-20, fourteen days in the dark. As to the method: Mature parsley leaves were excised and floated in water to randomize the leaves. After thorough washing 10 leaflets were incubated in petri plates lined with Whatman #1 filter paper and containing 2.5 ml of water containing various amounts of hexanal and 0.001% final Tween −20. Controls with water alone and Tween −20 were also incubated. The petri plates were incubated in the dark for fourteen days. The leaves were removed, chopped to fine pieces, and portions used for protein and pigment analyses. For protein analysis, a known amount of leaf segments (usually 0.6-0.7 g) were ground with 0.1 N NaOH (1 ml). After removing the debris by centrifugation, protein was determined in aliquots, using the dye-binding method by Bradford, 1976. To measure the pigments, leaf segments were extracted with 5 ml of 95% ethanol overnight in the dark. The absorbance readings were measured at […] to estimate chlorophyll a, at 647 nm for chlorophyll b and at […] for carotenoid. The data presented are the mean of two independent estimations from two sets of leaves incubated separately.

The test system of series [5] is PLD in leaf and root tissues of maize seedlings. As to conditions: cited from earlier work.
Where [6] appears, read: alcohol added to the assay mixture.
[7] abbreviates: increasing alcohol in the assay mixture.
Setting [8] is: maximal stimulation, at 50 μM magnesium chloride.
Setting [9] is: 0.2 mM of added calcium (10 μM of free calcium).
[10] abbreviates: maximal stimulation, at 0.5 mM of added calcium, 0.2 mM EGTA in assay.
Where [11] appears, read: acetaldehyde, concentration not stated (discussion).

As to `[Cl-].[K+]` [KCl, potassium chloride], the “effect on mitochondrial PLD activity” value in series [1] (monovalent salt up to 5 mM) was “nearly similar activity with respect to their respective controls”. Also, the “effect on microsomal PLD activity” value in series [2] (monovalent salt up to 5 mM) is on record as “inhibited”. Also, in series [3], the “effect on PLD activity” value is recorded as “did not affect PLD activity substantially; also recorded: did not appear to have any major effects on PLD activity”. In series [4] (monovalent salt up to 5 mM), the “effect on cytosolic PLD activity” value is recorded as “nearly similar activity with respect to their respective controls”.

`CCCO` [propanol]: in series [1] (setting [6]), the “effect on mitochondrial PLD activity” value was “only a marginal increase”. Besides, the “promotion in microsomal PLD activity” value in series [2] (between 0.1 and 1% (v/v) propanol) is on record as 20-25%. Besides, the “effect on PLD activity” value in series [3] is listed as “marginal”. The “effect on cytosolic PLD activity” value in series [4] (setting [7]) is recorded as “initial promotion of cytosolic activity followed by a decline”.

On to n-butanol, for which the “effect on mitochondrial PLD activity” value in series [1] (setting [6]) is on record as “decline in activity”. The “effect on microsomal PLD activity” value in series [2] (setting [6]) is “decline in activity”. The “effect on PLD activity” value in series [3] was “marginal”. For the same molecule, the “effect on cytosolic PLD activity” value in series [4] (setting [7]) was “decline in activity”.

For the molecule Lysophosphatidylethanolamine, the “inhibition of phospholipase D” value with phospholipase D is on record as “potent inhibitor of phospholipase D”.

As to hydroxy hexenal, the “effect on PLD” value with PLD was “promoters of PLD”.

Take `[Cl-].[Na+]` [sodium chloride]: in series [1] (monovalent salt up to 5 mM), the “effect on mitochondrial PLD activity” value is reported as “remained nearly the same”. In addition, the “effect on microsomal PLD activity” value in series [2] (monovalent salt up to 5 mM) is given as “remained nearly the same”. Further, the “effect on PLD activity” value in series [3] is listed as “did not affect PLD activity substantially; also recorded: did not appear to have any major effects on PLD activity”. Moreover, in series [4] (monovalent salt up to 5 mM), the “effect on cytosolic PLD activity” value is recorded as “remained nearly the same”.

Take `CCCCCCO` [hexanol]: the “effect on PLD activity” value in series [3] is reported as “potent inhibition of PLD activity; also recorded: effective inhibitors of PLD activity”. In the series with parsley leaves, the “amount of chlorophyll in parsley leaves versus controls” value is given as “greater amounts of chlorophyll than controls” and the “senescence or aging of parsley leaves” value is recorded as “less senescence or aging has occurred”.

Consider `[Cl-].[Cl-].[Mg+2]` [magnesium chloride], for which the “stimulation of microsomal PLD activity” value in series [2] (setting [8]) is around 100%. In addition, the results for the “effect on PLD activity” value in series [3] and in series [5] were “slightly higher than that of calcium ions” and “not stimulated”, respectively. Also, the “stimulation of cytosolic PLD activity” value in series [4] (setting [8]) was around 100%.

Consider `[Ca+2]` [calcium], for which the “effect on mitochondrial PLD activity” value in series [1] (0.5 mM of added calcium, 0.2 mM EGTA in assay) was “marginal stimulation”. Further, the figures for the “stimulation of microsomal PLD activity” value in series [2] (setting [9]) and in series [2] (setting [10]) were around 40% and 40-50%, respectively. In addition, the “effect on PLD activity” value is “marginally stimulated” in series [3] and “not stimulated” in series [5]. Further, the “stimulation of cytosolic PLD activity” value is listed as around 40% in series [4] (setting [9]) and 40-50% in series [4] (setting [10]).

As to `CC=O` [acetaldehyde], the “inhibition of mitochondrial PLD activity” value in series [1] (2% v/v acetaldehyde) was 80%; in series [1] (setting [11]), “over 75%”. In addition, the “inhibition of microsomal PLD activity” value in series [2] (2% v/v acetaldehyde) was 80%; in series [2] (setting [11]), “over 75%”. The figures for the “inhibition of cytosolic PLD activity” value in series [4] (2% v/v acetaldehyde) and in series [4] (setting [11]) were 80% and “over 75%”, respectively.

As to `CCO` [ethanol], the “effect on mitochondrial PLD activity” value in series [1] (setting [6]) was “stimulation in the activity”. The “stimulation of mitochondrial PLD activity” value in series [1] (maximal stimulation, at 0.25% ethanol (v/v)) is reported as 100%. Moreover, the “effect on microsomal PLD activity” value in series [2] was “stimulation in the activity”. Moreover, the “stimulation of microsomal PLD activity” value in series [2] came to 50%. The figures for the “effect on cytosolic PLD activity” value in series [4] (ethanol levels above 0.5%) and in series [4] (setting [7]) were “inhibited” and “marginal stimulation initially followed by a decline in activity”, respectively.

Consider `CCCCCC=O` [hexanal], for which the “effect on PLD activity” value in series [3] is reported as “potent inhibition of PLD activity; also recorded: effective inhibitors of PLD activity”.

The values above are taken from patent publication US6514914B1, “Inhibition of phospholipase D” (priority 1999, dated 2003).
